What all share (type): biochemical
The target of one test is T1, Haspin (h) (Homo sapiens, UniProt Q8TF76).
T1 construct: purchased Eurofins (KinaseProfiler)
T1 sequence (Q8TF76 1-798): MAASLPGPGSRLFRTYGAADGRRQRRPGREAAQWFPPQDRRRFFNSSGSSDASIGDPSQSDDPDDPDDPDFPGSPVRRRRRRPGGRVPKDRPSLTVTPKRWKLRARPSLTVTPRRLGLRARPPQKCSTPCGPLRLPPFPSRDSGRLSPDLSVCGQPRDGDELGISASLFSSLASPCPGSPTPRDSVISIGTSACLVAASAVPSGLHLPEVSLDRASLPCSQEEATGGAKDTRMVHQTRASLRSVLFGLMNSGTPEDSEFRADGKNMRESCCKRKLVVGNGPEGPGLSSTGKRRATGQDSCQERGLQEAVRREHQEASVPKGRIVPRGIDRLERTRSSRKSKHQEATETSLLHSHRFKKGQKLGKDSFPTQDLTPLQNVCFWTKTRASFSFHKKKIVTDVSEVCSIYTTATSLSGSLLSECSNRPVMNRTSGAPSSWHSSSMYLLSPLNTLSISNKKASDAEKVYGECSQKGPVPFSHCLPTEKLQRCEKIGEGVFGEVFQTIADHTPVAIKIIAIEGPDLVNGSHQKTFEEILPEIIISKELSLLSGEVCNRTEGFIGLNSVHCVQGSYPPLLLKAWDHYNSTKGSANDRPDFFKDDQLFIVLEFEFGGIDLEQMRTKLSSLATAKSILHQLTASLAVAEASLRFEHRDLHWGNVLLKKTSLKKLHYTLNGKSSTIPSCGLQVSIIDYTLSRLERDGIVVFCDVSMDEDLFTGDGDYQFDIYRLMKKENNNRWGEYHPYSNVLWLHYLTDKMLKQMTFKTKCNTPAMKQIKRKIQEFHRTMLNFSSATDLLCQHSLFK
Nature of the test: radiometric kinase assay (KinaseProfiler, Eurofins), Haspin. Particulars: in vitro radiometric kinase assay, tested at 1 nM to 10 000 nM, no pre-incubation; read-out: inhibitory activities (IC50 values) Haspin. The method, boiled down: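 Human Haspin in 8 mM MOPS pH 7.0 with 500 µM RARTLSFAEPG, 10 mM Mg acetate and γ-33P-ATP; compound added without preincubation. Reaction ran 40 min at room temperature, then filter-bound 33P was counted. Nine concentrations from 1 to 10 000 nM gave % remaining activity versus DMSO, and IC50 came from curve fit.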

The target in a further test is T2, PIM1 (h) (Homo sapiens, UniProt P11309).
T2 construct: purchased Eurofins (KinaseProfiler)
T2 sequence (P11309 whole entry): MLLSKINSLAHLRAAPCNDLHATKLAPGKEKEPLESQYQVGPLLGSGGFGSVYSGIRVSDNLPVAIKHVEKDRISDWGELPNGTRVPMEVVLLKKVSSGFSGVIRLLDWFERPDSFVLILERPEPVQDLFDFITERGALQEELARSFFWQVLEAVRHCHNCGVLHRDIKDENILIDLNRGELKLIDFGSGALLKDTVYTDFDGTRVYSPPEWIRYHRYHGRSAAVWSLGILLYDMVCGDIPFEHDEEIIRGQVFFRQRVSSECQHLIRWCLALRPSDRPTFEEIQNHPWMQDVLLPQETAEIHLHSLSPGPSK
Nature of the test: radiometric kinase assay (KinaseProfiler, Eurofins), PIM1. Particulars: in vitro radiometric kinase assay, tested at 1 nM to 10 000 nM, no pre-incubation; read-out: inhibitory activities (IC50 values) PIM1. The protocol:
(§1) The compounds were profiled in the radiometric assays (KinaseProfiler, Eurofins).
(§2) Briefly, kinases were diluted in the buffer shown below prior to addition to the reaction mix: • CDKL3, TAF1L: 20 mM Tris/HCl pH 8.5, 0.2 mM EDTA, 0.1% β-mercaptoethanol, 0.01% Brij-35, 5% glycerol, 1 mg/ml BSA; • Haspin: 15 mM MOPS, 0.75 mM EDTA, 0.0075% Brij-35, 3.75% Glycerol, 150 mM NaCl, 0.1% β-mercaptoethanol, 1 mg/mLBSA; • CDKL4, CLK2, PIM1, TRB2: […], 1 mM EDTA, 0.01% Brij-35, 5% Glycerol, 0.1% β-mercaptoethanol, 1 mg/mL BSA.
(§3) All compounds were prepared to 50x final assay concentration in 100% DMSO. This working stock of the compound was added to the assay well as the first component in the reaction, followed by the remaining components as detailed in the general assay protocols below. There was no pre-incubation step between the compound and the kinase prior to initiation of the reaction.
PIM1 (h) was incubated with 8 mM MOPS pH 7.0, 0.2 mM EDTA, 100 µM KKRNRTLTV (SEQ ID NO. 4), 10 mM magnesium acetate and γ-^33P-ATP (specific activity and concentration as required). The reaction was initiated by the addition of the Mg/ATP mix. After incubation for 40 minutes at room temperature, the reaction was stopped by the addition of phosphoric acid to a concentration of 0.5%. An aliquot of the reaction was then spotted onto a filter and washed four times for 4 minutes in 0.425% phosphoric acid and once in methanol prior to drying and scintillation counting.
(§4) Kinase activity data were expressed as the percent remaining kinase activity in tested samples compared to the vehicle (DMSO) reactions. The compounds were tested at the following concentrations: 1 nM, 3 nM, 10 nM, 30 nM, 100 nM, 300 nM, 1000 nM, 3000 nM, and 10 000 nM; IC50 values and curve fits were then obtained.

A further test concerns the target T3, CLK2 (h) (Homo sapiens, UniProt P49760).
T3 construct: purchased Eurofins (KinaseProfiler)
Nature of the test: radiometric kinase assay (KinaseProfiler, Eurofins), CLK2. Particulars: in vitro radiometric kinase assay, tested at 1 nM to 10 000 nM, no pre-incubation; read-out: inhibitory activities (IC50 values) CLK2. The protocol:
as §1, §2, §3
CLK2 (h) was incubated with 8 mM MOPS pH 7.0, 0.2 mM EDTA, 20 µM […](p)EDEEE (SEQ ID NO. 2), 10 mM magnesium acetate and γ-^33P-ATP (specific activity and concentration as required). The reaction was initiated by the addition of the Mg/ATP mix. After incubation for 40 minutes at room temperature, the reaction was stopped by the addition of phosphoric acid to a concentration of 0.5%. An aliquot of the reaction was then spotted onto a filter and washed four times for 4 minutes in 0.425% phosphoric acid and once in methanol prior to drying and scintillation counting.
as §4

In the next test the target is T4, CDKL4(h) (Homo sapiens, UniProt Q5MAI5).
T4 construct: purchased Eurofins (KinaseProfiler)
T4 sequence (Q5MAI5 whole entry): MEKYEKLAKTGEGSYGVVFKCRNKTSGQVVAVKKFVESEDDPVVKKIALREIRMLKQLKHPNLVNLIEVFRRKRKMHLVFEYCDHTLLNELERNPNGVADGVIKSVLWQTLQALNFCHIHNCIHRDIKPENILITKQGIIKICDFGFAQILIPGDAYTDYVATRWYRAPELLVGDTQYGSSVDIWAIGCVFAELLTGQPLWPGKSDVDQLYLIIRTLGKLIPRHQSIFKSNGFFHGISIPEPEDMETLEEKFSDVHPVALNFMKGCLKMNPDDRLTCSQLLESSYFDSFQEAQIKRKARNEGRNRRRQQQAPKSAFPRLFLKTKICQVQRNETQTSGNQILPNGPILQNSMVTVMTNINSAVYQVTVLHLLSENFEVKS
Nature of the test: radiometric kinase assay (KinaseProfiler, Eurofins), CDKL4. Particulars: in vitro radiometric kinase assay, tested at 1 nM to 10 000 nM, no pre-incubation; read-out: inhibitory activities (IC50 values) CDKL4. As to the method:
as §1, §2, §3
CDKL4(h) was incubated with 8 mM MOPS pH 7.0, 0.2 mM EDTA, 250 µM RRRFRPASPLRGPPK (SEQ ID NO. 1), 10 mM magnesium acetate and γ-^33P-ATP (specific activity and concentration as required). The reaction was initiated by the addition of the Mg/ATP mix. After incubation for 120 minutes at room temperature, the reaction was stopped by the addition of phosphoric acid to a concentration of 0.5%. An aliquot of the stopped reaction was spotted onto a filter and washed four times for 4 minutes in 0.425% phosphoric acid and once in methanol prior to drying and scintillation counting.
as §4

Each structure is given as a SMILES string.

T3 sequence (P49760 whole entry): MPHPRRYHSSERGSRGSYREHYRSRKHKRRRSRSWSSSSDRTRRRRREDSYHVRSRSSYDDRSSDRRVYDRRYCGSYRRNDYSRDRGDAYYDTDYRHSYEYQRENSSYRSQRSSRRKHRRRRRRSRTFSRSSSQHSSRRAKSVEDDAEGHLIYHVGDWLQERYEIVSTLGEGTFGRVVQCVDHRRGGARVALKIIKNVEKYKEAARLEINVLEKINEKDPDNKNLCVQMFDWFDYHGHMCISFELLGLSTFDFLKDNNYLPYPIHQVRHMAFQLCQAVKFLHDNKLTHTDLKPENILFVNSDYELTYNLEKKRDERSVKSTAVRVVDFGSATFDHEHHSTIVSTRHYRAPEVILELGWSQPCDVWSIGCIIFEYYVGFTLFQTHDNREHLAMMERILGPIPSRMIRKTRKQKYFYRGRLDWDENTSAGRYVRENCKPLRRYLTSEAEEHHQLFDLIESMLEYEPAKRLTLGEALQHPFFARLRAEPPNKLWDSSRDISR

In the case of `Cn1cc(-c2ccc3scc(-c4ccncc4)c3n2)nn1` [Preparative Example 93, 5-(1-methyl-1H-1,2,3-triazol-4-yl)-3-(pyridin-4-yl)thieno[3,2-b]pyridine], the IC50 – broadly, the concentration that inhibits the measured activity by half – at Haspin (h) was in the range of 500 to 3000 nM; at PIM1 (h), 500 to 3000 nM; on CLK2 (h), 3000 to 10000 nM; at CDKL4(h), 3000 to 10000 nM.
In the case of `Cn1ncc(-c2ccc3scc(-c4ccncc4)c3n2)n1` [Preparative Example 94, 5-(2-methyl-2H-1,2,3-triazol-4-yl)-3-(pyridin-4-yl)thieno[3,2-b]pyridine], the IC50 on Haspin (h) fell in the range of 500 to 3000 nM; at PIM1 (h) it was 3000 to 10000 nM; at CLK2 (h), 3000 to 10000 nM; on CDKL4(h) it was 500 to 3000 nM.
Take `Cn1ccc(Nc2ccc3scc(-c4ccncc4)c3n2)n1` [Preparative Example 99, N-(1-methyl-1H-pyrazol-3-yl)-3-(pyridin-4-yl)thieno[3,2-b]pyridin-5-amine]: the IC50 on Haspin (h) is 20 to 99 nM; at PIM1 (h), 500 to 3000 nM; at CLK2 (h) it was 500 to 3000 nM; at CDKL4(h) it was 500 to 3000 nM.
Regarding `c1cc(-c2csc3ccc(Nc4cc[nH]n4)nc23)ccn1` [Preparative Example 101, N-(1H-pyrazol-3-yl)-3-(pyridin-4-yl)thieno[3,2-b]pyridin-5-amine], the IC50 on Haspin (h) is 20 to 99 nM; at PIM1 (h) it was 500 to 3000 nM; on CLK2 (h), 100 to 499 nM; on CDKL4(h), 100 to 499 nM.
As to `Fc1cc(-c2ccc3scc(-c4ccccc4)c3n2)cc(F)c1F` [Preparative Example 122, 3-phenyl-5-(3,4,5-trifluorophenyl)thieno[3,2-b]pyridine], the IC50 on Haspin (h), on PIM1 (h), on CLK2 (h) and at CDKL4(h) was 3000 to 10000 nM throughout.
Consider `c1ccc(-c2csc3ccc(-c4ccoc4)nc23)cc1` [Preparative Example 123, 5-(furan-3-yl)-3-phenylthieno[3,2-b]pyridine], for which the IC50 at Haspin (h), on PIM1 (h), on CLK2 (h) and at CDKL4(h) was 3000 to 10000 nM in each case.
`c1ccc(-c2csc3ccc(-c4cnoc4)nc23)cc1` [Preparative Example 124, 4-(3-phenylthieno[3,2-b]pyridin-5-yl)isoxazole]: the IC50 on Haspin (h), on PIM1 (h), on CLK2 (h) and at CDKL4(h) was 3000 to 10000 nM each time.
On to `Cn1cc(-c2csc3ccc(Oc4ccccc4)nc23)cn1` [Preparative Example 139, 3-(1-methyl-1H-pyrazol-4-yl)-5-phenoxythieno[3,2-b]pyridine], for which the IC50 on Haspin (h) fell in the range of 100 to 499 nM; on PIM1 (h) it was 500 to 3000 nM; on CLK2 (h), 500 to 3000 nM; at CDKL4(h), 500 to 3000 nM.
Regarding `Cc1sc2ccc(-c3cnn(C)c3)nc2c1-c1ccncc1` [Preparative Example 142, 2-methyl-5-(1-methyl-1H-pyrazol-4-yl)-3-(pyridin-4-yl)thieno[3,2-b]pyridine], the IC50 was in the range of 500 to 3000 nM on Haspin (h), 3000 to 10000 nM on PIM1 (h), 3000 to 10000 nM on CLK2 (h) and 500 to 3000 nM at CDKL4(h).
For `Cc1cc2scc(-c3ccncc3)c2nc1-c1cnn(C)c1` [Preparative Example 150, 6-methyl-5-(1-methyl-1H-pyrazol-4-yl)-3-(pyridin-4-yl)thieno[3,2-b]pyridine], the IC50 lay in the range of 500 to 3000 nM on Haspin (h), 500 to 3000 nM on PIM1 (h), 3000 to 10000 nM at CLK2 (h) and 500 to 3000 nM on CDKL4(h).
Take `Cc1cc2scc(-c3ccncc3)c2nc1-c1ccn(C)n1` [Preparative Example 151, 6-methyl-5-(1-methyl-1H-pyrazol-3-yl)-3-(pyridin-4-yl)thieno[3,2-b]pyridine]: the IC50 on Haspin (h) fell in the range of 20 to 99 nM; on PIM1 (h), 3000 to 10000 nM; at CLK2 (h), 3000 to 10000 nM; on CDKL4(h), 3000 to 10000 nM.

Source of the values: patent EP4483954A1 (Masarykova Univerzita, priority 2023, dated 2025).
